Data reported in US11214594B2, “Antimicrobial peptide having synergistic antibacterial effect with antibiotics on multidrug resistant bacteria, and use thereof” (priority 2016, dated 2022).
≈ marks a conversion by molar mass, not a printed value. Like-named read-outs stand apart in the source and are kept apart here. Where a SMILES comes first, the peptide text is derived from it. [ ]: non-standard residue; d: D form.

Key:
[1] = system: A. baumannii; test: MIC of antibiotic during combined treatment with antimicrobial peptide; format: cell-based, Acinetobacter baumannii; settings: for Antibiotic MIC, Erythromycin / Antibiotic MIC, Linezolid / Antibiotic MIC, Vancomycin: A. baumannii
How it was run: (§1)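 Checkerboard-type MIC of peptide–antibiotic mixtures in MH medium: the antibiotic was serially diluted in MH medium and added to wells, then the reversed arrangement was also tested.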

[2] = system: B. subtilis; test: microbe, parasite or virus in culture; format: cell-based, Bacillus subtilis
How it was run: (§2)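 Each strain is brought to 2×10^6 CFU in nutrient-sufficient Mueller-Hinton medium and dispensed into wells. Peptide solutions, stepwise diluted 2:1 in the same medium, are then added. The minimal concentration preventing growth gives the MIC.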

[3] = system: S. epidermidis; test: microbe, parasite or virus in culture; format: cell-based, Staphylococcus epidermidis
How it was run: as §2

[4] = system: MDRST 8009; format: cell-based, Salmonella typhimurium; settings: agent alone
How it was run: as §2

[5] = system: E. coli; test: microbe, parasite or virus in culture; format: cell-based, Escherichia coli; settings: 16 h
How it was run: as §2

[6] = system: MDREC 1229; test: microbe, parasite or virus in culture; format: cell-based, Escherichia coli
How it was run: as §2

[7] = system: E. coli; test: MIC of antibiotic during combined treatment with antimicrobial peptide; format: cell-based, Escherichia coli; settings: for Antibiotic MIC, Erythromycin / Antibiotic MIC, Linezolid / Antibiotic MIC, Vancomycin: E. coli
How it was run: as §1

[8] = system: A. baumannii; test: MIC of antimicrobial peptide during combined treatment with antibiotic; format: cell-based, Acinetobacter baumannii
How it was run: (§3)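 Strains in MH medium at 2×10^6 CFU/ml were mixed with peptide diluted stepwise (2:1) from its MIC, then antibiotic dilutions in MH medium were added to give the antibiotic MIC. The reversed set-up, peptide titrated against fixed antibiotic, gave the peptide MIC.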

[9] = system: MDRAB 12035; test: as above; format: cell-based, Acinetobacter baumannii
How it was run: as §3

[10] = system: A. baumannii; test: microbe, parasite or virus in culture; format: cell-based, Acinetobacter baumannii
How it was run: as §2

[11] = system: MDRAB 12035; test: microbe, parasite or virus in culture; format: cell-based, Acinetobacter baumannii
How it was run: as §2

[12] = system: E. coli; format: cell-based, Escherichia coli; settings: E. coli
How it was run: as §3

[13] = system: MDREC 1229; format: cell-based, Escherichia coli
How it was run: as §3

[14] = system: S. aureus; test: microbe, parasite or virus in culture; format: cell-based, Staphylococcus aureus
How it was run: as §2

[15] = system: P. aeruginosa; test: microbe, parasite or virus in culture; format: cell-based, Pseudomonas aeruginosa
How it was run: as §2

[16] = combined with peptide at 1 μg/ml
[17] = combined with peptide at 2 μg/ml
[18] = combined with peptide at 4 μg/ml
[19] = combined with peptide at 6 μg/ml
[20] = combined with peptide at 8 μg/ml
[21] = combined with peptide at 16 μg/ml
[22] = combined with peptide at 32 μg/ml
[23] = combined with peptide at 64 μg/ml
[24] = erythromycin 4 μg/ml (Conc./MIC 1/8)
[25] = erythromycin 8 μg/ml (Conc./MIC 1/4)
[26] = erythromycin 16 μg/ml (Conc./MIC 1/2)
[27] = erythromycin 32 μg/ml (Conc./MIC 1)
[28] = vancomycin 512 μg/ml (Conc./MIC 1/2)
[29] = vancomycin 1024 μg/ml (Conc./MIC 1)
[30] = linezolid 64 μg/ml (Conc./MIC 1/8)
[31] = linezolid 512 μg/ml (Conc./MIC 1)

## CC[C@H](C)[C@H](NC(=O)[C@H](CCCCN)NC(=O)[C@H](Cc1c[nH]c2ccccc12)NC(=O)[C@@H](N)CCCNC(=N)N)C(=O)N[C@@H](Cc1ccccc1)C(=O)N[C@@H](CCCCN)C(=O)N[C@@H](CCCCN)C(=O)N[C@H](C(=O)N[C@H](CC(C)C)C(=O)N[C@@H](CCCCN)C(=O)N[C@@H](CC(C)C)C(=O)N[C@@H](CC(C)C)C(=O)N[C@@H](Cc1c[nH]cn1)C(=O)N[C@@H](CCCCN)C(=O)N[C@@H](C)C(=O)N[C@@H](CCCCN)C(=O)N[C@@H](CCCCN)C(=O)N[C@@H](Cc1c[nH]c2ccccc12)C(N)=O)[C@@H](C)CC [PapMA-22, RWK IFK KIl KLL HKA KKW-NH2] (H-RWKIFKKI[dL]KLLHKAKKW-NH2; N-terminus assumed)
[1]; A. baumannii and MDRAB 12035
  Synergistic effect of antibacterial activity with existing antibiotics compared with PapMA-1: level similar to that of PapMA-1 peptide
[1]; [16]
  Antibiotic MIC, Erythromycin: 32 µg/mL
  Antibiotic MIC, Linezolid: >128 µg/mL
  Antibiotic MIC, Vancomycin: >128 µg/mL
[1]; [17]
  Antibiotic MIC, Erythromycin: 32 µg/mL
  Antibiotic MIC, Linezolid: >128 µg/mL
  Antibiotic MIC, Vancomycin: 128 µg/mL
[1]; [18]
  Antibiotic MIC, Erythromycin: 8 µg/mL
  Antibiotic MIC, Linezolid: 32 µg/mL
  Antibiotic MIC, Vancomycin: 64 µg/mL
[1]; [19]
  Antibiotic MIC, Erythromycin: 2 µg/mL
  Antibiotic MIC, Linezolid: 16 µg/mL
  Antibiotic MIC, Vancomycin: 32 µg/mL
[1]; [20]
  Antibiotic MIC, Erythromycin: 1 µg/mL
  Antibiotic MIC, Linezolid: 8 µg/mL
  Antibiotic MIC, Vancomycin: 8 µg/mL
[1]; [21]
  Antibiotic MIC, Erythromycin: 0 µg/mL
  Antibiotic MIC, Linezolid: 0 µg/mL
  Antibiotic MIC, Vancomycin: 0 µg/mL
[1]; [22]
  Antibiotic MIC, Erythromycin: 0 µg/mL
  Antibiotic MIC, Linezolid: 0 µg/mL
  Antibiotic MIC, Vancomycin: 0 µg/mL
[1]; [23]
  Antibiotic MIC, Erythromycin: 0 µg/mL
  Antibiotic MIC, Linezolid: 0 µg/mL
  Antibiotic MIC, Vancomycin: 0 µg/mL
[2]
  Minimal inhibitory concentration MIC: >128 µg/mL
[3]
  Minimal inhibitory concentration MIC: >128 µg/mL
[4]
  Minimal inhibitory concentration MIC: 32 µg/mL (≈ 13.5 µM)
[5]
  Minimal inhibitory concentration MIC: 32 µg/mL (≈ 13.5 µM)
[6]
  Minimal inhibitory concentration MIC: 32 µg/mL (≈ 13.5 µM)
  Peptide MIC, peptide alone: 32 µg/mL
[7]; E. coli and MDREC1229
  Synergistic effect of antibacterial activity with existing antibiotics compared with PapMA-1: level similar to that of the PapMA-1 peptide
[7]; erythromycin combined with peptide at 1 μg/ml
  Antibiotic MIC, Erythromycin: 128 µg/mL
[7]; erythromycin combined with peptide at 2 μg/ml
  Antibiotic MIC, Erythromycin: 32 µg/mL
[7]; erythromycin combined with peptide at 4 μg/ml
  Antibiotic MIC, Erythromycin: 16 µg/mL
[7]; erythromycin combined with peptide at 6 μg/ml
  Antibiotic MIC, Erythromycin: 8 µg/mL
[7]; erythromycin combined with peptide at 8 μg/ml
  Antibiotic MIC, Erythromycin: 2 µg/mL
[7]; erythromycin combined with peptide at 16 μg/ml
  Antibiotic MIC, Erythromycin: 1 µg/mL
[7]; erythromycin combined with peptide at 32 μg/ml
  Antibiotic MIC, Erythromycin: 0 µg/mL
[7]; erythromycin combined with peptide at 64 μg/ml
  Antibiotic MIC, Erythromycin: 0 µg/mL
[7]; linezolid combined with peptide at 1 μg/ml
  Antibiotic MIC, Linezolid: >128 µg/mL
[7]; linezolid combined with peptide at 2 μg/ml
  Antibiotic MIC, Linezolid: 128 µg/mL
[7]; linezolid combined with peptide at 4 μg/ml
  Antibiotic MIC, Linezolid: 64 µg/mL
[7]; linezolid combined with peptide at 6 μg/ml
  Antibiotic MIC, Linezolid: 32 µg/mL
[7]; linezolid combined with peptide at 8 μg/ml
  Antibiotic MIC, Linezolid: 32 µg/mL
[7]; linezolid combined with peptide at 16 μg/ml
  Antibiotic MIC, Linezolid: 16 µg/mL
[7]; linezolid combined with peptide at 32 μg/ml
  Antibiotic MIC, Linezolid: 0 µg/mL
[7]; linezolid combined with peptide at 64 μg/ml
  Antibiotic MIC, Linezolid: 0 µg/mL
[7]; vancomycin combined with peptide at 1 μg/ml
  Antibiotic MIC, Vancomycin: >128 µg/mL
[7]; vancomycin combined with peptide at 2 μg/ml
  Antibiotic MIC, Vancomycin: >128 µg/mL
[7]; vancomycin combined with peptide at 4 μg/ml
  Antibiotic MIC, Vancomycin: 128 µg/mL
[7]; vancomycin combined with peptide at 6 μg/ml
  Antibiotic MIC, Vancomycin: 64 µg/mL
[7]; vancomycin combined with peptide at 8 μg/ml
  Antibiotic MIC, Vancomycin: 32 µg/mL
[7]; vancomycin combined with peptide at 16 μg/ml
  Antibiotic MIC, Vancomycin: 16 µg/mL
[7]; vancomycin combined with peptide at 32 μg/ml
  Antibiotic MIC, Vancomycin: 0 µg/mL
[7]; vancomycin combined with peptide at 64 μg/ml
  Antibiotic MIC, Vancomycin: 0 µg/mL
[8]; [24]
  Peptide MIC during treatment with erythromycin: 8 µg/mL
[8]; [25]
  Peptide MIC during treatment with erythromycin: 4 µg/mL
[8]; [26]
  Peptide MIC during treatment with erythromycin: 4 µg/mL
[8]; [27]
  Peptide MIC during treatment with erythromycin: 0 µg/mL
[8]; linezolid 32 μg/ml (Conc./MIC 1/8)
  Peptide MIC during treatment with linezolid: 4 µg/mL
[8]; linezolid 64 μg/ml (Conc./MIC 1/4)
  Peptide MIC during treatment with linezolid: 4 µg/mL
[8]; linezolid […] (Conc./MIC 1)
  Peptide MIC during treatment with linezolid: 0 µg/mL
[8]; linezolid […] (Conc./MIC 1/2)
  Peptide MIC during treatment with linezolid: 1 µg/mL
[8]; [28]
  Peptide MIC during treatment with vancomycin: 0.25 µg/mL
[8]; [29]
  Peptide MIC during treatment with vancomycin: 0 µg/mL
[8]; vancomycin […] (Conc./MIC 1/4)
  Peptide MIC during treatment with vancomycin: 0.5 µg/mL
[8]; vancomycin […] (Conc./MIC 1/8)
  Peptide MIC during treatment with vancomycin: 2 µg/mL
[9]; [24]
  Peptide MIC during treatment with erythromycin: 8 µg/mL
[9]; [25]
  Peptide MIC during treatment with erythromycin: 8 µg/mL
[9]; [26]
  Peptide MIC during treatment with erythromycin: 4 µg/mL
[9]; [27]
  Peptide MIC during treatment with erythromycin: 0 µg/mL
[9]; [30]
  Peptide MIC during treatment with linezolid: 4 µg/mL
[9]; [31]
  Peptide MIC during treatment with linezolid: 0 µg/mL
[9]; linezolid […] (Conc./MIC 1/2)
  Peptide MIC during treatment with linezolid: 1 µg/mL
[9]; linezolid […] (Conc./MIC 1/4)
  Peptide MIC during treatment with linezolid: 4 µg/mL
[9]; [28]
  Peptide MIC during treatment with vancomycin: 4 µg/mL
[9]; [29]
  Peptide MIC during treatment with vancomycin: 1 µg/mL
[9]; vancomycin […] (Conc./MIC 1/4)
  Peptide MIC during treatment with vancomycin: 4 µg/mL
[9]; vancomycin […] (Conc./MIC 1/8)
  Peptide MIC during treatment with vancomycin: 4 µg/mL
[10]
  Minimal inhibitory concentration MIC: 16 µg/mL (≈ 6.77 µM)
  Peptide MIC, peptide alone: 16 µg/mL
[10]; A. baumannii and S. typhimurium
  Antibacterial activity relative to PapMA-1: at least twice as high
[11]
  Minimal inhibitory concentration MIC: 32 µg/mL (≈ 13.5 µM)
  Peptide MIC, peptide alone: 32 µg/mL
[12]; with Erythromycin […] (Conc./MIC 1)
  Peptide MIC: 0 µg/mL
[12]; with Linezolid […] (Conc./MIC 1)
  Peptide MIC: 0 µg/mL
[12]; with Vancomycin 1024 μg/ml (Conc./MIC 1)
  Peptide MIC: 0 µg/mL
[13]; erythromycin 32 μg/ml (Conc./MIC 1/8)
  Peptide MIC during treatment with antibiotic: 2 µg/mL
[13]; erythromycin 64 μg/ml (Conc./MIC 1/4)
  Peptide MIC during treatment with antibiotic: 2 µg/mL
[13]; erythromycin […] (Conc./MIC 1)
  Peptide MIC during treatment with antibiotic: 0 µg/mL
[13]; erythromycin […] (Conc./MIC 1/2)
  Peptide MIC during treatment with antibiotic: 1 µg/mL
[13]; [30]
  Peptide MIC during treatment with antibiotic: 8 µg/mL
[13]; [31]
  Peptide MIC during treatment with antibiotic: 0 µg/mL
[13]; linezolid […] (Conc./MIC 1/2)
  Peptide MIC during treatment with antibiotic: 1 µg/mL
[13]; linezolid […] (Conc./MIC 1/4)
  Peptide MIC during treatment with antibiotic: 4 µg/mL
[13]; [28]
  Peptide MIC during treatment with antibiotic: 2 µg/mL
[13]; [29]
  Peptide MIC during treatment with antibiotic: 2 µg/mL
[13]; vancomycin […] (Conc./MIC 1/4)
  Peptide MIC during treatment with antibiotic: 4 µg/mL
[13]; vancomycin […] (Conc./MIC 1/8)
  Peptide MIC during treatment with antibiotic: 8 µg/mL
[14]
  Minimal inhibitory concentration MIC: >128 µg/mL
[15]
  Minimal inhibitory concentration MIC: 16 µg/mL (≈ 6.77 µM)
